In patent US9353089B2, “Compositions and methods for the treatment of malaria” (Saint Louis University, priority 2013, dated 2016):
Read-outs that look alike come from different tables or passages of the source.

Tests used:
[1] = test system: Plasmodium falciparum 3D7 (CQ-sensitive); assay: In vitro antimalarial assay (malaria SYBR Green I-based fluorescence, MSF), 3D7; type: cell-based
Outline: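 Asynchronous P. falciparum 3D7 cultures (0.5% parasitemia, 2% hematocrit) were exposed to serially diluted compounds, in quadruplicate. Growth was then quantified by SYBR Green I fluorescence after adding lysis buffer containing 0.2 μL/mL dye.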

[2] = molecular target: Plasmepsin-2 (PM-2; Plm II) (Plasmodium falciparum (isolate HB3), UniProt P46925); assay: Plasmepsin-2 enzyme inhibition assay; type: biochemical
Plasmepsin-2 (PM-2; Plm II), sequence (P46925 125-453 limits assumed): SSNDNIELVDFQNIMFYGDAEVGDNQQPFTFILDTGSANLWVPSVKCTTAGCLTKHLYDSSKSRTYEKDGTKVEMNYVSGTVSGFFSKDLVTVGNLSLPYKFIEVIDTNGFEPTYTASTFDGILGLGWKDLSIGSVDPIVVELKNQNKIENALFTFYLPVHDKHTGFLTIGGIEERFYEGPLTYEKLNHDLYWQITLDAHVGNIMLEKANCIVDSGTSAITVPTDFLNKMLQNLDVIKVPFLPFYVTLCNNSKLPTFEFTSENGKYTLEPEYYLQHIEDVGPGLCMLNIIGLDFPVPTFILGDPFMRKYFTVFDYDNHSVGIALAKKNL
Outline: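 Enzymes activated in pH 4.5 citrate/DTT buffer, then assayed in 50 mM sodium acetate pH 4.7, 0.01% Tween-20. Compounds added before fluorogenic peptide substrate (final 20 µM); 60 min at room temperature, fluorescence Ex/Em 360/535 nm, IC50 by curve fit.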

[3] = molecular target: Plasmepsin (PM-4; Plm IV) (Plasmodium falciparum (isolate 3D7), UniProt Q8IM16); assay: Plasmepsin-4 enzyme inhibition assay; type: biochemical; conditions: Table 8
Plasmepsin (PM-4; Plm IV), sequence (Q8IM16 122-449 limits assumed): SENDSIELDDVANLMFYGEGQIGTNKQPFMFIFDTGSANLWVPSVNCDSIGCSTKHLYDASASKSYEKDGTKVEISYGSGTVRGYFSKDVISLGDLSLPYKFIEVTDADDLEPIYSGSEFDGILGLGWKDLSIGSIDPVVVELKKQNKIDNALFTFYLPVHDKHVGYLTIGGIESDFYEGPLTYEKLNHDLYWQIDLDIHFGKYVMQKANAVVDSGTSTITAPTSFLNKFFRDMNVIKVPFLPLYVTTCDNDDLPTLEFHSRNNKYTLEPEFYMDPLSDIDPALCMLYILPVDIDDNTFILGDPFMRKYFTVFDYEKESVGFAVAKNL
Method: Plasmepsin-2 (PM-2; Plm II) and Plasmepsin (PM-4; Plm IV) expression and purification was performed following the published protocols (Istvan E S and Goldberg D E, 2005). The final purified protein was activated by diluting the protein to 0.3 mg/mL in activating buffer (0.1 M citrate pH 4.5, 0.1% Tween-20, 50 mM dithiothreitol) and incubated at room temperature for 40 min, then the activated enzyme was diluted in assay buffer (50 mM sodium acetate pH 4.7, 0.01% Tween-20). The enzymatic inhibition reaction was performed in 384 well plates with a total volume of 20 μl. 10 μl of diluted PM-2 or PM-4 enzyme was added to the 384-well plate except blank wells (blank wells add 10 μL of assay buffer) and 20 nL of serials of diluted 1000× compounds were added to the wells with 520 Echo® Liquid Handling System (Labcyte Inc.). 10 μL PM-2 peptide substrate (AnaSpec, Cat#, 62050) with assay buffer was then added to final concentration of 20 μM to start the reaction. After incubation the reaction at room temperature for 60 min, the fluorescence intensity at Ex/Em=360 nm/535 nm was measured using EnVision multilabel plate reader (Perkin-Elmer). The IC50 values were obtained using Graph Pad Prism 4 and are reported in Tables 8 and 9 below as PM-2 IC50 values.

recombinant human BACE1 [4] = molecular target: recombinant human BACE1 (Homo sapiens, UniProt P56817); assay: β-Secretase (BACE1) enzyme inhibition FRET assay; type: biochemical
recombinant human BACE1 (Homo sapiens, UniProt P56817), sequence (P56817 46-501 limits assumed): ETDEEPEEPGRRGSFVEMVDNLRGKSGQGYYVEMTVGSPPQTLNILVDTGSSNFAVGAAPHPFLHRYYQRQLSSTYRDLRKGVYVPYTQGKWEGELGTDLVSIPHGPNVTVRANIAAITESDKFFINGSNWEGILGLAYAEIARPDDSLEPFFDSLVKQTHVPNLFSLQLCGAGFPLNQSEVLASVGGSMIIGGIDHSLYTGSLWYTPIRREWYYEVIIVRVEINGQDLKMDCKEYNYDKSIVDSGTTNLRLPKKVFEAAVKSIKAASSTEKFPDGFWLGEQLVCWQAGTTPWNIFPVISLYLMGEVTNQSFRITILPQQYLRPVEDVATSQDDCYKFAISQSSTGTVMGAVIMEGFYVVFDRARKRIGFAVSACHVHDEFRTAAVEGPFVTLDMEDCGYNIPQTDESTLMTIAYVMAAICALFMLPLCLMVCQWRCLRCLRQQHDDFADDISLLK
Method: (§1) The enzymatic inhibition activity assays were determined using the fluorescence resonance energy transfer (FRET) assay. The assays were performed in a 384-well plate format. […] CatD and CatE were activated by incubation in assay buffer (0.1 M NaOAc, 0.2 M NaCl, pH 3.5) at room temperature for 30 min. Subsequently, the rhBACE-1 substrate (R&D Systems, catalog# ES004), the Cathepsin D and Cathepsin E substrate (R&D Systems, Catalog # ES001) were added accordingly to final concentration 20 μM to initiate the reaction. After 60 min incubation at room temperature, the time-resolved fluorescence at Ex/Em=360 nm/460 nm was measured on an EnVision multilabel plate reader (Perkin-Elmer). The analytical software, GraphPad Prism 5.0 (GraphPad Software, Inc., USA) was used to generate IC50 values via non-linear regression analysis, which are reported in Tables 8-13 below as BACE1 IC50 values.

recombinant human BACE1 [5] = assay: β-Secretase (BACE1) enzyme inhibition FRET assay; type: biochemical
Method: as §1

[6] = molecular target: recombinant human Cathepsin D (Homo sapiens (Human), UniProt P07339); assay: Cathepsin D enzyme inhibition FRET assay; type: biochemical; conditions: for IC50: Table 8, read-out: CatD IC50
recombinant human Cathepsin D, sequence (P07339 65-412): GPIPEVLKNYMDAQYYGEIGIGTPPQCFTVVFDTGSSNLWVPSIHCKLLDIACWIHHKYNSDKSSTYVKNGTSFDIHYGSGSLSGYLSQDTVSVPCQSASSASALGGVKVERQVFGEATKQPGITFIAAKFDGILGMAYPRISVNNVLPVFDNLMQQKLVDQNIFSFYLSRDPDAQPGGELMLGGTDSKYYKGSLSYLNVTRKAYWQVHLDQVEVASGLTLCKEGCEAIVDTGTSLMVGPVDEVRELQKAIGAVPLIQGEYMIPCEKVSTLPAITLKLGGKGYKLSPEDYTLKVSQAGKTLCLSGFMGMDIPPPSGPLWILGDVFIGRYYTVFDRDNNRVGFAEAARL
Method: (§2) The enzymatic inhibition activity assays were determined using the fluorescence resonance energy transfer (FRET) assay. The assays were performed in a 384-well plate format. […] The concentration of Cathepsin D was 20 ng/μL, and 1 ng/μL of Cathepsin E was used. CatD and CatE were activated by incubation in assay buffer (0.1 M NaOAc, 0.2 M NaCl, pH 3.5) at room temperature for 30 min. Subsequently, the rhBACE-1 substrate (R&D Systems, catalog# ES004), the Cathepsin D and Cathepsin E substrate (R&D Systems, Catalog # ES001) were added accordingly to final concentration 20 μM to initiate the reaction. After 60 min incubation at room temperature, the time-resolved fluorescence at Ex/Em=360 nm/460 nm was measured on an EnVision multilabel plate reader (Perkin-Elmer). The analytical software, GraphPad Prism 5.0 (GraphPad Software, Inc., USA) was used to generate IC50 values via non-linear regression analysis, which are reported in Tables 8-13 below as BACE1 IC50 values.

[7] = molecular target: recombinant human Cathepsin E (Homo sapiens (Human), UniProt P14091); assay: Cathepsin E enzyme inhibition FRET assay; type: biochemical; conditions: Table 8; read-out: CatE IC50
recombinant human Cathepsin E, sequence (P14091 54-396): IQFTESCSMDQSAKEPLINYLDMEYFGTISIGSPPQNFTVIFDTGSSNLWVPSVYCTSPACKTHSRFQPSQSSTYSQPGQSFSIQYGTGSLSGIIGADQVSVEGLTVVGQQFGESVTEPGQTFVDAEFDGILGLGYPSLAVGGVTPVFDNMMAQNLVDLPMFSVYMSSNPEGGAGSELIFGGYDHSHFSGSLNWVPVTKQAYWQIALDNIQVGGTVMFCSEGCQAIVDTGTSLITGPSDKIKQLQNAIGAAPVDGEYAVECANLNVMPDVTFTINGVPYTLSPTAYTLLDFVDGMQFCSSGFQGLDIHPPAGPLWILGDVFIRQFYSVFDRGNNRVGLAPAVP
Method: as §2

[8] = 3D7, Table 8, read-out: Pf 3D7 IC50
[9] = 3D7, read-out: 3D7 IC50 (μM), Table 13
[10] = ratio of BACE1 IC50 to PM-2 IC50
[11] = 3D7, read-out: 3D7 IC50 (μM), Table 12
[12] = 3D7, read-out: Pf 3D7 IC50 (μM), Table 11
[13] = 3D7, read-out: Pf 3D7 IC50, Table 8
[14] = 3D7, Table 10, read-out: Pf3D7 IC50
[15] = 3D7, Table 13, read-out: 3D7 IC50

COc1ccc(C2(c3ccc(OC)cc3)NC(=O)N(C3CCCCC3)C2=O)cc1
IC50 [1, 8]: > 10 µM | IC50 ([2]; Table 8, read-out: PM-II IC50): > 10000 nM | IC50 [3]: > 10000 nM

COc1cccc(-c2cccc(C3(C4CC4)NC(=N)N(C4CCCCC4)C3=O)c2)c1 (stereo not drawn) [Example 328, 3-cyclohexyl-5-cyclopropyl-2-imino-5-[3-(3-methoxyphenyl)-phenyl]imidazolidin-4-one]
IC50 [1, 9]: 0.746 µM | IC50 ([2]; Table 12, read-out: PM-2 IC50): 104 nM | IC50 ([2]; Table 13, read-out: PM-2 IC50): 104 nM | IC50 (recombinant human BACE1 [4]; Table 12, read-out: BACE1 IC50): ~7000 nM | IC50 (recombinant human BACE1 [4]; Table 13, read-out: BACE1 IC50): ~6800 nM | BACE1/PM2 Ratio (recombinant human BACE1 [5]; [10]): 67

COc1cccc(-c2cccc(C3(C4CC4)NC(=N)N(C4CCOCC4)C3=O)c2)c1 (stereo not drawn) [Example 329, 5-cyclopropyl-2-imino-5-[3-(3-methoxyphenyl)-phenyl]-3-(oxan-4-yl)imidazolidin-4-one]
IC50 [1, 11]: 0.746 µM | IC50 [1, 9]: 0.621 µM | IC50 ([2]; Table 12, read-out: PM-2 IC50): 83.1 nM | IC50 ([2]; Table 13, read-out: PM-2 IC50): 83.1 nM | IC50 (recombinant human BACE1 [4]; Table 12, read-out: BACE1 IC50): ~4000 nM | IC50 (recombinant human BACE1 [4]; Table 13, read-out: BACE1 IC50): ~3600 nM | BACE1/PM2 Ratio (recombinant human BACE1 [5]): 48

N=C1NC(c2ccccc2)(c2cccc(-c3cccnc3)c2)C(=O)N1C1CCCCC1 (stereo not drawn) [Example 136, 3-cyclohexyl-2-imino-5-phenyl-5-[3-(pyridin-3-yl)-phenyl]imidazolidin-4-one]
IC50 [1, 11]: 0.75 µM | IC50 [1, 9]: 0.75 µM | IC50 [1, 12]: 0.75 µM | IC50 [1, 13]: 0.75 µM | IC50 ([2]; Table 8, read-out: PM-II IC50): 13 nM | IC50 ([2]; Table 12, read-out: PM-2 IC50): 13 nM | IC50 ([2]; Table 13, read-out: PM-2 IC50): 13 nM | IC50 [3]: 31 nM | IC50 (recombinant human BACE1 [4]; Table 8, read-out: BACE IC50): 1680 nM | IC50 (recombinant human BACE1 [4]; Table 12, read-out: BACE1 IC50): 18100 nM | IC50 (recombinant human BACE1 [4]; Table 13, read-out: BACE1 IC50): 18100 nM | selectivity for PM-II over BACE (recombinant human BACE1 [5]): > 1000 fold | BACE1/PM2 Ratio (recombinant human BACE1 [5]; [10]): 1392 | selectivity for PM-II over CatD [6]: > 1000 fold | IC50 [6]: > 10000 nM | IC50 [7]: > 10000 nM

COc1ccc(C2(c3ccc(OC)cc3)NC(=N)N(C3CCNCC3)C2=O)cc1 [Example 207, 2-imino-5,5-bis(4-methoxyphenyl)-3-(piperidin-4-yl)-imidazolidin-4-one]
IC50 [1, 8]: > 5 µM | IC50 [1, 14]: > 5 µM | IC50 [1, 15]: > 5 µM | IC50 ([2]; Table 8, read-out: PM-II IC50): 505 nM | IC50 ([2]; Table 13, read-out: PM-2 IC50): 505 nM | IC50 [3]: 192 nM

COc1cccc(-c2cccc(C3(c4ccccc4)NC(=N)N(C4CCCCC4)C3=O)c2)c1 (stereo not drawn) [Example 326, 3-cyclohexyl-2-imino-5-[3-(3-methoxyphenyl)phenyl]-5-phenylimidazolidin-4-one]
IC50 [1, 11]: 1.34 µM | IC50 [1, 9]: 1.34 µM | IC50 ([2]; Table 12, read-out: PM-2 IC50): 33.1 nM | IC50 ([2]; Table 13, read-out: PM-2 IC50): 33.1 nM | IC50 (recombinant human BACE1 [4]; Table 12, read-out: BACE1 IC50): ~9000 nM | IC50 (recombinant human BACE1 [4]; Table 13, read-out: BACE1 IC50): ~8900 nM | BACE1/PM2 Ratio (recombinant human BACE1 [5]; [10]): ~270

COc1cccc(-c2cccc(C3(c4ccccc4)NC(=N)N(C4CCOCC4)C3=O)c2)c1 (stereo not drawn) [Example 324, 2-imino-5-[3-(3-methoxyphenyl)-phenyl]-3-(oxan-4-yl)-5-phenylimidazolidin-4-one]
IC50 [1, 11]: 1.46 µM | IC50 [1, 9]: 1.46 µM | IC50 ([2]; Table 12, read-out: PM-2 IC50): 11.3 nM | IC50 ([2]; Table 13, read-out: PM-2 IC50): 11.3 nM | IC50 (recombinant human BACE1 [4]; Table 12, read-out: BACE1 IC50): 2460 nM | IC50 (recombinant human BACE1 [4]; Table 13, read-out: BACE1 IC50): 2460 nM | BACE1/PM2 Ratio (recombinant human BACE1 [5]; [10]): 218

CCC(CN1C(=N)NC(c2ccccc2)(c2ccccc2)C1=O)c1ccccc1 (stereo not drawn) [drawing 192]
IC50 [1, 13]: 2.76 µM | IC50 ([2]; Table 8, read-out: PM-II IC50): 12 nM | IC50 [3]: 45 nM | IC50 (recombinant human BACE1 [4]; Table 8, read-out: BACE IC50): 2300 nM | IC50 [6]: 385 nM | IC50 [7]: 99 nM

COc1cccc(C2(c3cccc(OC)c3)NC(=N)N(C3CCCCC3)C2=O)c1 [Example 128, 3-cyclohexyl-2-imino-5,5-bis(3-methoxyphenyl)-imidazolidin-4-one]
IC50 [1, 9]: 0.768 µM | IC50 [1, 12]: 0.768 µM | IC50 [1, 13]: 0.768 µM | IC50 ([2]; Table 8, read-out: PM-II IC50): 36 nM | IC50 ([2]; Table 13, read-out: PM-2 IC50): 35.9 nM | IC50 [3]: 41 nM | IC50 (recombinant human BACE1 [4]; Table 8, read-out: BACE IC50): 28900 nM | IC50 (recombinant human BACE1 [4]; Table 13, read-out: BACE1 IC50): 28900 nM | IC50 [6]: 1100 nM | IC50 [7]: 1860 nM

COc1ccc(C2(c3ccc(OC)cc3)NC(=N)N(Cc3ncccc3C)C2=O)cc1 [Example 302, 2-imino-5,5-bis(4-methoxyphenyl)-3-[(3-methylpyridin-2-yl)methyl]imidazolidin-4-one]
IC50 [1, 9]: 1.07 µM | IC50 ([2]; Table 13, read-out: PM-2 IC50): 48.8 nM | IC50 (recombinant human BACE1 [4]; Table 13, read-out: BACE1 IC50): > 10000 nM

COc1ccc(C2(C3CC3)NC(=N)N(C3CCOCC3)C2=O)cc1-c1cccc(C#N)c1 (stereo not drawn) [Example 491, 5′-(4-cyclopropyl-2-imino-5-oxo-1-(tetrahydro-2H-pyran-4-yl)imidazolidin-4-yl)-2′-methoxy-[1,1′-biphenyl]-3-carbonitrile]
IC50 [1, 9]: 0.47 µM | IC50 ([2]; Table 13, read-out: PM-2 IC50): 51.7 nM | IC50 (recombinant human BACE1 [4]; Table 13, read-out: BACE1 IC50): 8320 nM

COc1ccc(C2(c3ccc(OC)cc3)NC(=N)N(C3CCN(C)CC3)C2=O)cc1 [Example 166, 2-imino-5,5-bis(4-methoxyphenyl)-3-(1-methylpiperidin-4-yl)imidazolidin-4-one]
IC50 [1, 8]: 0.697 µM | IC50 [1, 14]: 0.697 µM | IC50 [1, 15]: 0.697 µM | IC50 ([2]; Table 8, read-out: PM-II IC50): 35 nM | IC50 ([2]; Table 13, read-out: PM-2 IC50): 34.7 nM | IC50 [3]: 109 nM

COc1ccc(C2(c3cccc(-c4cccnc4)c3)NC(=N)N(C3CCCCC3)C2=O)cc1 (stereo not drawn) [Example 171, 3-cyclohexyl-2-imino-5-(4-methoxyphenyl)-5-[3-(pyridin-3-yl)phenyl]-imidazolidin-4-one]
IC50 [1, 9]: 0.595 µM | IC50 [1, 12]: 0.595 µM | IC50 [1, 13]: 0.595 µM | IC50 ([2]; Table 8, read-out: PM-II IC50): 7 nM | IC50 ([2]; Table 13, read-out: PM-2 IC50): 6.97 nM | IC50 [3]: 7 nM | IC50 (recombinant human BACE1 [4]; Table 8, read-out: BACE IC50): ~7150 nM | IC50 (recombinant human BACE1 [4]; Table 13, read-out: BACE1 IC50): ~7150 nM | IC50 [6]: ~14900 nM | IC50 [7]: 4010 nM

COc1ccc(C2(c3ccc(OC)cc3)NC(=N)N(CC3CCN(C(=O)OC(C)(C)C)CC3)C2=O)cc1 [Example 313, tert-butyl 4-{[2-imino-4,4-bis(4-methoxyphenyl)-5-oxoimidazolidin-1-yl]methyl}piperidine-1-carboxylate]
inhibition of growth at 1 µM ([1]; 3D7, 72 h, read-out: 3D7 % inh @ 1 μM): 27% | IC50 ([2]; Table 13, read-out: PM-2 IC50): 11 nM | IC50 (recombinant human BACE1 [4]; Table 13, read-out: BACE1 IC50): ~2200 nM
